{"source": "ChEMBL document CHEMBL5143622", "about": "“Synthesis and biological evaluation of 7H-pyrrolo [2,3-d] pyrimidine derivatives as potential p21-activated kinase 4 (PAK4) inhibitors” (Bioorg Med Chem, 2022)", "key": {"[1]": {"molecular_target": "T1, Serine/threonine-protein kinase PAK 4 (Homo sapiens, UniProt O96013)", "assay": "Inhibition of human PAK4 assessed as enzymatic activity at 2 uM incubated for 20 mins by filter binding method relative to control"}, "[2]": {"molecular_target": "T1, Serine/threonine-protein kinase PAK 4", "assay": "Inhibition of human PAK4 assessed as enzymatic activity incubated for 20 mins by filter binding method"}, "[3]": {"molecular_target": "T1, Serine/threonine-protein kinase PAK 4", "assay": "Inhibition of PAK4 phosphorylation at Ser474 residue in human MV4-11 cells at 50 to 800 nM incubated for 24 hrs by Western blot analysis", "type": "cell-based", "details": "dose 50-800 nM, DDE = dose-dependent effect"}, "[4]": {"system": "MV4-11", "assay": "Induction of apoptosis in human MV4-11 cells assessed as viable cells at 10 nM incubated for 48 hrs by annexin V-FITC and propidium iodide staining based flow cytometry analysis (reference value: 95.6 %)", "type": "functional", "details": "read-out: Activity"}, "[5]": {"system": "MV4-11", "assay": "Induction of apoptosis in human MV4-11 cells assessed as late apoptotic cells at 50 nM incubated for 48 hrs by annexin V-FITC and propidium iodide staining based flow cytometry analysis (reference value: 1.67 %)", "type": "functional"}, "[6]": {"system": "MV4-11", "assay": "Induction of apoptosis in human MV4-11 cells assessed as early apoptotic cells at 50 nM incubated for 48 hrs by annexin V-FITC and propidium iodide staining based flow cytometry analysis (reference value: 3.71 %)", "type": "functional"}, "[7]": {"assay": "Cytotoxicity against HEK293T cells assessed as cell growth inhibition incubated for 72 hrs by cell titre glo luminescence assay", "type": "toxicity, cell-based, HEK-293T", "details": "human"}, "[8]": {"system": "MV4-11", "assay": "Antiproliferative activity against human MV4-11 cells assessed as cell growth inhibition incubated for 72 hrs by cell titre glo luminescence assay", "type": "functional, cell-based", "details": "MV4-11, 72 h"}, "[9]": {"system": "MV4-11", "assay": "Induction of cell cycle arrest in human MV4-11 cells assessed as accumulation at G2/M phase at 5 nM incubated for 24 hrs by propidium iodide staining based flow cytometry analysis (reference value: 7.46 %)", "type": "functional"}, "[10]": {"system": "MV4-11", "assay": "Induction of cell cycle arrest in human MV4-11 cells assessed as accumulation at S phase at 5 nM incubated for 24 hrs by propidium iodide staining based flow cytometry analysis (reference value: 25.75 %)", "type": "functional"}, "[11]": {"system": "MV4-11", "assay": "Induction of apoptosis in human MV4-11 cells assessed as viable cells at 250 nM incubated for 48 hrs by annexin V-FITC and propidium iodide staining based flow cytometry analysis (reference value: 95.6 %)", "type": "functional", "details": "read-out: Activity"}, "[12]": {"system": "MV4-11", "assay": "Induction of cell cycle arrest in human MV4-11 cells assessed as accumulation at S phase at 50 nM incubated for 24 hrs by propidium iodide staining based flow cytometry analysis (reference value: 25.75 %)", "type": "functional"}, "[13]": {"system": "MV4-11", "assay": "Induction of cell cycle arrest in human MV4-11 cells assessed as accumulation at G0/G1 phase at 5 nM incubated for 24 hrs by propidium iodide staining based flow cytometry analysis (reference value: 66.79 %)", "type": "functional"}, "[14]": {"system": "MV4-11", "assay": "Induction of cell cycle arrest in human MV4-11 cells assessed as accumulation at G2/M phase at 10 nM incubated for 24 hrs by propidium iodide staining based flow cytometry analysis (reference value: 7.46 %)", "type": "functional"}, "[15]": {"system": "MV4-11", "assay": "Induction of apoptosis in human MV4-11 cells assessed as necrotic cells at 10 nM incubated for 48 hrs by annexin V-FITC and propidium iodide staining based flow cytometry analysis (reference value: 0.013 %)", "type": "functional"}, "[16]": {"system": "MV4-11", "assay": "Induction of apoptosis in human MV4-11 cells assessed as early apoptotic cells at 250 nM incubated for 48 hrs by annexin V-FITC and propidium iodide staining based flow cytometry analysis (reference value: 3.71 %)", "type": "functional"}, "[17]": {"system": "MV4-11", "assay": "Induction of apoptosis in human MV4-11 cells assessed as viable cells at 50 nM incubated for 48 hrs by annexin V-FITC and propidium iodide staining based flow cytometry analysis (reference value: 95.6 %)", "type": "functional", "details": "read-out: Activity"}, "[18]": {"system": "MV4-11", "assay": "Induction of apoptosis in human MV4-11 cells assessed as necrotic cells at 250 nM incubated for 48 hrs by annexin V-FITC and propidium iodide staining based flow cytometry analysis (reference value: 0.013 %)", "type": "functional"}, "[19]": {"system": "MV4-11", "assay": "Induction of cell cycle arrest in human MV4-11 cells assessed as accumulation at G0/G1 phase at 50 nM incubated for 24 hrs by propidium iodide staining based flow cytometry analysis (reference value: 66.79 %)", "type": "functional"}, "[20]": {"system": "MV4-11", "assay": "Induction of apoptosis in human MV4-11 cells assessed as late apoptotic cells at 10 nM incubated for 48 hrs by annexin V-FITC and propidium iodide staining based flow cytometry analysis (reference value: 1.67 %)", "type": "functional"}, "[21]": {"system": "MV4-11", "assay": "Induction of cell cycle arrest in human MV4-11 cells assessed as accumulation at G2/M phase at 50 nM incubated for 24 hrs by propidium iodide staining based flow cytometry analysis (reference value: 7.46 %)", "type": "functional"}, "[22]": {"system": "MV4-11", "assay": "Induction of apoptosis in human MV4-11 cells assessed as necrotic cells at 50 nM incubated for 48 hrs by annexin V-FITC and propidium iodide staining based flow cytometry analysis (reference value: 0.013 %)", "type": "functional"}, "[23]": {"system": "MDA-MB-231", "assay": "Antiproliferative activity against human MDA-MB-231 cells assessed as cell growth inhibition incubated for 72 hrs by cell titre glo luminescence assay", "type": "functional, cell-based", "details": "MDA-MB-231, 72 h"}, "[24]": {"system": "MV4-11", "assay": "Induction of cell cycle arrest in human MV4-11 cells assessed as accumulation at S phase at 10 nM incubated for 24 hrs by propidium iodide staining based flow cytometry analysis (reference value: 25.75 %)", "type": "functional"}, "[25]": {"system": "MV4-11", "assay": "Induction of apoptosis in human MV4-11 cells assessed as early apoptotic cells at 10 nM incubated for 48 hrs by annexin V-FITC and propidium iodide staining based flow cytometry analysis (reference value: 3.71 %)", "type": "functional"}, "[26]": {"system": "MV4-11", "assay": "Induction of cell cycle arrest in human MV4-11 cells assessed as accumulation at G0/G1 phase at 10 nM incubated for 24 hrs by propidium iodide staining based flow cytometry analysis (reference value: 66.79 %)", "type": "functional"}, "[27]": {"system": "MV4-11", "assay": "Induction of apoptosis in human MV4-11 cells assessed as late apoptotic cells at 250 nM incubated for 48 hrs by annexin V-FITC and propidium iodide staining based flow cytometry analysis (reference value: 1.67 %)", "type": "functional"}, "[28]": {"molecular_target": "T1, Serine/threonine-protein kinase PAK 4", "assay": "Inhibition of human PAK4 assessed as inhibition constant"}}}
{"smiles": "OCC(O)CNc1nc(Nc2ccccc2)nc2[nH]ccc12", "note": "(stereo not given)", "values": [{"measurement": "inhibition", "setting": "[1]", "value": 82.4, "unit": "%"}]}
{"smiles": "OCCNc1nc(Nc2ccccc2)nc2[nH]ccc12", "values": [{"measurement": "inhibition", "setting": "[1]", "value": 86.9, "unit": "%"}]}
{"smiles": "C[C@@H]1CN(C(=O)c2nc(Nc3cc(C4CC4)[nH]n3)c3cc(Cl)ccc3n2)CCN1", "values": [{"measurement": "IC50", "setting": "[2]", "value": 9, "unit": "nM"}]}
{"smiles": "NCC1CCCN(c2nc(Nc3cccc(Cl)c3)nc3[nH]ccc23)C1", "note": "(stereo not given)", "values": [{"measurement": "inhibition", "setting": "[1]", "value": 61, "unit": "%"}]}
{"smiles": "N[C@H]1CCCN(c2nc(Nc3cccc(Cl)c3)nc3[nH]ccc23)C1", "values": [{"measurement": "IC50", "setting": "[2]", "value": 229, "unit": "nM"}, {"measurement": "inhibition", "setting": "[1]", "value": 38.3, "unit": "%"}]}
{"smiles": "COc1cccc(Nc2nc(NC3CCNCC3)c3cc[nH]c3n2)c1", "values": [{"measurement": "inhibition", "setting": "[1]", "value": 46.2, "unit": "%"}]}
{"smiles": "Nc1ccc(/C=C/C(=O)NCc2cc3cc(-c4ccc(C(=O)N5CCC(F)(F)CC5)cc4)cc(-c4ccc(F)cc4)c3o2)cn1", "note": "[PADNARSERTIB]", "values": [{"measurement": "IC50", "setting": "[2]", "value": 100, "unit": "nM"}]}
{"smiles": "N[C@H]1CC[C@@H](Nc2nc(Nc3cccc(Cl)c3)nc3[nH]ccc23)CC1", "values": [{"measurement": "inhibition", "setting": "[3]", "value": "Dde"}, {"measurement": "viability at 0.01 µM", "setting": "[4]", "value": 92.7, "unit": "%"}, {"measurement": "IC50", "setting": "[2]", "value": 2.7, "unit": "nM"}, {"measurement": "Activity", "setting": "[5]", "value": 9.71, "unit": "%"}, {"measurement": "Activity", "setting": "[6]", "value": 11.9, "unit": "%"}, {"measurement": "IC50 at 72 h", "setting": "[7]", "value": "> 10", "unit": "µM"}, {"measurement": "IC50", "setting": "[8]", "value": 7.8, "unit": "nM"}, {"measurement": "Activity", "setting": "[9]", "value": 3.97, "unit": "%"}, {"measurement": "Activity", "setting": "[10]", "value": 17.34, "unit": "%"}, {"measurement": "viability at 0.25 µM", "setting": "[11]", "value": 72.8, "unit": "%"}, {"measurement": "Activity", "setting": "[12]", "value": 7.75, "unit": "%"}, {"measurement": "Activity", "setting": "[13]", "value": 78.7, "unit": "%"}, {"measurement": "Activity", "setting": "[14]", "value": 2.48, "unit": "%"}, {"measurement": "Activity", "setting": "[15]", "value": 0.032, "unit": "%"}, {"measurement": "Activity", "setting": "[16]", "value": 14.5, "unit": "%"}, {"measurement": "viability at 0.05 µM", "setting": "[17]", "value": 78.4, "unit": "%"}, {"measurement": "Activity", "setting": "[18]", "value": 0.087, "unit": "%"}, {"measurement": "Activity", "setting": "[19]", "value": 90.98, "unit": "%"}, {"measurement": "Activity", "setting": "[20]", "value": 2.99, "unit": "%"}, {"measurement": "Activity", "setting": "[21]", "value": 1.27, "unit": "%"}, {"measurement": "Activity", "setting": "[22]", "value": 0.043, "unit": "%"}, {"measurement": "IC50", "setting": "[23]", "value": 825, "unit": "nM"}, {"measurement": "Activity", "setting": "[24]", "value": 8.71, "unit": "%"}, {"measurement": "Activity", "setting": "[25]", "value": 4.28, "unit": "%"}, {"measurement": "Activity", "setting": "[26]", "value": 88.81, "unit": "%"}, {"measurement": "Activity", "setting": "[27]", "value": 12.5, "unit": "%"}]}
{"smiles": "CC1(N)CCN(c2nc(Nc3cccc(Cl)c3)nc3[nH]ccc23)CC1", "values": [{"measurement": "inhibition", "setting": "[1]", "value": 35.5, "unit": "%"}]}
{"smiles": "N[C@H]1CC[C@H](Nc2nc(Nc3cccc(Cl)c3)nc3[nH]ccc23)CC1", "values": [{"measurement": "IC50", "setting": "[2]", "value": 20.2, "unit": "nM"}, {"measurement": "IC50 at 72 h", "setting": "[7]", "value": 7.39, "unit": "µM"}, {"measurement": "IC50", "setting": "[8]", "value": 38.3, "unit": "nM"}, {"measurement": "IC50", "setting": "[23]", "value": 2480, "unit": "nM"}]}
{"smiles": "c1ccc(Nc2nc(N3CCOCC3)c3cc[nH]c3n2)cc1", "values": [{"measurement": "inhibition", "setting": "[1]", "value": 91.6, "unit": "%"}]}
{"smiles": "COCCNc1nc2ccc(C#CC3(O)CCCCC3)cc2n1-c1ncnc(N)n1", "values": [{"measurement": "Ki", "setting": "[28]", "value": 3.3, "unit": "nM"}]}
{"smiles": "Clc1cccc(Nc2nc(NCC3CCNCC3)c3cc[nH]c3n2)c1", "values": [{"measurement": "inhibition", "setting": "[1]", "value": 25.9, "unit": "%"}]}
{"smiles": "c1ccc(Nc2nc(N3CCNCC3)c3cc[nH]c3n2)cc1", "values": [{"measurement": "inhibition", "setting": "[1]", "value": 89.6, "unit": "%"}]}
{"smiles": "c1ccc(Nc2nc(NC3CCNCC3)c3cc[nH]c3n2)cc1", "values": [{"measurement": "IC50", "setting": "[2]", "value": 2940, "unit": "nM"}, {"measurement": "inhibition", "setting": "[1]", "value": 64.2, "unit": "%"}]}
{"smiles": "Fc1cccc(Nc2nc(NC3CCNCC3)c3cc[nH]c3n2)c1", "values": [{"measurement": "IC50", "setting": "[2]", "value": 165, "unit": "nM"}, {"measurement": "inhibition", "setting": "[1]", "value": 38.3, "unit": "%"}]}
{"smiles": "Clc1cccc(Nc2nc(NC3CCNCC3)c3cc[nH]c3n2)c1", "values": [{"measurement": "IC50", "setting": "[2]", "value": 50.3, "unit": "nM"}]}
{"smiles": "N[C@@H]1CCCN(c2nc(Nc3cccc(Cl)c3)nc3[nH]ccc23)C1", "values": [{"measurement": "IC50", "setting": "[2]", "value": 229, "unit": "nM"}, {"measurement": "inhibition", "setting": "[1]", "value": 72.5, "unit": "%"}]}
